Assay results from the supplement of paper PMC7017272.
± gives the standard deviation of the averaged measurements.

How the values were obtained:
Conditions in all cases: treatment time: 3 days
UT-SCC-28 [1] = test: relative IC50 (midpoint of the fitted curve; maximal inhibition may be below 50%); higher = less potent
Method in brief: (§1)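 Three growth formats were used for HPV-negative HNSCC cell lines in 384-well plates at 500 cells/well: bare plastic, wells coated with Matrigel or Myogel (500 µg/mL), and embedding in Matrigel or Myogel plus rat collagen I. Compounds were added at five 10-fold concentrations, and after 3 days CellTiter-Glo 2.0 luminescence was recorded and normalised to vehicle (0.1% DMSO) and cell-killing control wells. IC50, maximal inhibition and drug sensitivity score came from percent-inhibition dose–response fitting in the FIMM pipeline.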

UT-SCC-40 [2] = test: as above
Method in brief: as §1

UT-SCC-106A [3] = test: as above
Method in brief: as §1

UT-SCC-24B [4] = test: as above
Method in brief: as §1

UT-SCC-8 [5] = test: as above
Method in brief: as §1

UT-SCC-24A [6] = test: maximal % inhibition of viability relative to DMSO; higher = stronger effect
Experimental: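 HNSCC cell lines (500 cells/well, 384-well) were cultured on plastic, on top of (2D) or embedded (3D) in Matrigel or human leiomyoma matrix Myogel (500 ug/mL; Myogel 3D mixed with rat collagen I). Cells were treated for 3 days with 5 ten-fold concentrations of each drug, and viability was read by CellTiter-Glo. Viability was normalised to DMSO (0% inhibition) and 100 uM benzethonium chloride (100% inhibition) controls and fitted with the FIMM DSRT pipeline to give IC50 (nM), maximal % inhibition and the drug sensitivity score (DSS). Suffixes _1/_2/_3 on drug names are replicates.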

UT-SCC-24A [7] = test: drug sensitivity score (DSS); higher = more sensitive
Experimental: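 HNSCC cell lines (500 cells/well, 384-well) were cultured on plastic, on top of (2D) or embedded (3D) in Matrigel or human leiomyoma matrix Myogel (500 ug/mL; Myogel 3D mixed with rat collagen I). Cells were treated for 3 days with 5 ten-fold concentrations of each drug, and viability was read by CellTiter-Glo. Suffixes _1/_2/_3 on drug names are replicates.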

UT-SCC-44 = test: maximal % inhibition of viability relative to DMSO; higher = stronger effect
Experimental: (§2)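 HNSCC cell lines (500 cells/well, 384-well) were cultured on plastic, on top of (2D) or embedded (3D) in Matrigel or human leiomyoma matrix Myogel (500 ug/mL; Myogel 3D mixed with rat collagen I). Cells were treated for 3 days with 5 ten-fold concentrations of each drug, and viability was read by CellTiter-Glo. Viability was normalised to DMSO and benzethonium chloride controls and fitted with the FIMM DSRT pipeline to give IC50 (nM), maximal % inhibition and DSS. Suffixes _1/_2/_3 are replicates. Only inhibition-mode (IC50) fits are kept.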

UT-SCC-28 [8] = test: as above
Experimental: as §2

UT-SCC-73 = test: as above
Experimental: as §2

UT-SCC-42B = test: as above
Experimental: as §2

UT-SCC-40 [9] = test: as above
Experimental: as §2

UT-SCC-42A = test: as above
Experimental: as §2

UT-SCC-81 = test: as above
Experimental: as §2

UT-SCC-14 = test: as above
Experimental: as §2

UT-SCC-106A [10] = test: as above
Experimental: as §2

UT-SCC-24B [11] = test: as above
Experimental: as §2

UT-SCC-8 [12] = test: as above
Experimental: as §2

[13] = culture condition: embedded in Matrigel
[14] = culture condition: plastic 2D (no matrix)
[15] = culture condition: on top of Myogel
[16] = culture condition: on top of Matrigel
[17] = culture condition: embedded in Myogel + collagen I

For `Cn1c(=O)n(-c2ccc(C(C)(C)C#N)cc2)c2c3cc(-c4cnc5ccccc5c4)ccc3ncc21` [Dactolisib], the “relative IC50” value (UT-SCC-28 [1]; [13]) was > 989 nM, the “relative IC50” value (UT-SCC-28 [1]; [14]) was > 989 nM and the “relative IC50” value (UT-SCC-40 [2]; [15]) was > 989 nM. The “relative IC50” value (UT-SCC-40 [2]; [14]) was > 989 nM, the “relative IC50” value (UT-SCC-106A [3]; [13]) was > 989 nM and the “relative IC50” value (UT-SCC-106A [3]; [16]) was > 989 nM. For the same compound, the “relative IC50” value (UT-SCC-106A [3]; [15]) was > 989 nM, the “relative IC50” value (UT-SCC-24B [4]; [13]) was 55.5 nM and the “relative IC50” value (UT-SCC-24B [4]; [17]) was 22.1 nM. The “relative IC50” value (UT-SCC-24B [4]; [16]) was 33.4 nM, the “relative IC50” value (UT-SCC-24B [4]; [15]) was 31.3 nM and the “relative IC50” value (UT-SCC-24B [4]; [14]) was 34.7 nM. For the same compound, the “relative IC50” value (UT-SCC-8 [5]; [13]) was > 989 nM, the “relative IC50” value (UT-SCC-8 [5]; [14]) was > 989 nM and the “maximal % inhibition of viability” value (UT-SCC-24A [6]; [13]) was 34.6 ± 9%. The “maximal % inhibition of viability” value (UT-SCC-24A [6]; [17]) was 14.9 ± 11%, the “maximal % inhibition of viability” value (UT-SCC-24A [6]; [16]) was 14.7 ± 5.4% and the “maximal % inhibition of viability” value (UT-SCC-24A [6]; [15]) was 4.17 ± 3.1%. The “maximal % inhibition of viability” value (UT-SCC-24A [6]; [14]) was 6.6 ± 2.1%, the drug sensitivity score (UT-SCC-24A [7]; [13]) was 5.73 ± 5 DSS and the drug sensitivity score (UT-SCC-24A [7]; [17]) was 0.767 ± 1.3 DSS. It also gave a drug sensitivity score (UT-SCC-24A [7]; [16]) of 0 DSS, a drug sensitivity score (UT-SCC-24A [7]; [15]) of 0 DSS and a drug sensitivity score (UT-SCC-24A [7]; [14]) of 0 DSS. For the same compound, the “maximal % inhibition of viability” value (UT-SCC-44; [13]) was 12.5 ± 9.3%, the “maximal % inhibition of viability” value (UT-SCC-44; [17]) was 13.2 ± 23% and the “maximal % inhibition of viability” value (UT-SCC-44; [16]) was 13.7 ± 2.4%. For the same compound, the “maximal % inhibition of viability” value (UT-SCC-44; [15]) was 12.8 ± 4.1%, the “maximal % inhibition of viability” value (UT-SCC-44; [14]) was 16.8 ± 4.5% and the “maximal % inhibition of viability” value (UT-SCC-28 [8]; [13]) was 19.7 ± 5%. The “maximal % inhibition of viability” value (UT-SCC-28 [8]; [17]) was 9.5 ± 12%, the “maximal % inhibition of viability” value (UT-SCC-28 [8]; [16]) was 13.3 ± 2.7% and the “maximal % inhibition of viability” value (UT-SCC-28 [8]; [14]) was 8.33 ± 5.8%. The “maximal % inhibition of viability” value (UT-SCC-73; [13]) was 11.8 ± 3.4%, the “maximal % inhibition of viability” value (UT-SCC-73; [17]) was 40.1 ± 8.9% and the “maximal % inhibition of viability” value (UT-SCC-73; [16]) was 9.33 ± 2.9%. The “maximal % inhibition of viability” value (UT-SCC-73; [15]) was 8.23 ± 2.8%, the “maximal % inhibition of viability” value (UT-SCC-73; [14]) was 1.63 ± 0.76% and the “maximal % inhibition of viability” value (UT-SCC-42B; [13]) was 12.9 ± 6%. For the same compound, the “maximal % inhibition of viability” value (UT-SCC-42B; [16]) was 10.9 ± 6.9%, the “maximal % inhibition of viability” value (UT-SCC-42B; [15]) was 6.13 ± 1.8% and the “maximal % inhibition of viability” value (UT-SCC-42B; [14]) was 1.67 ± 0.57%. For the same compound, the “maximal % inhibition of viability” value (UT-SCC-40 [9]; [13]) was 18.2 ± 15%, the “maximal % inhibition of viability” value (UT-SCC-40 [9]; [17]) was 8.93 ± 7.8% and the “maximal % inhibition of viability” value (UT-SCC-40 [9]; [16]) was 9.4 ± 3.6%. The “maximal % inhibition of viability” value (UT-SCC-40 [9]; [15]) was 7.2 ± 4.8%, the “maximal % inhibition of viability” value (UT-SCC-40 [9]; [14]) was 2.4 ± 2.4% and the “maximal % inhibition of viability” value (UT-SCC-42A; [13]) was 0.767 ± 1.3%. The “maximal % inhibition of viability” value (UT-SCC-42A; [17]) was 6.03 ± 5.7%, the “maximal % inhibition of viability” value (UT-SCC-42A; [16]) was 9.57 ± 4.9% and the “maximal % inhibition of viability” value (UT-SCC-42A; [15]) was 4.37 ± 2.7%. For the same compound, the “maximal % inhibition of viability” value (UT-SCC-42A; [14]) was 8.8 ± 3.1%, the “maximal % inhibition of viability” value (UT-SCC-81; [13]) was 40.7 ± 33% and the “maximal % inhibition of viability” value (UT-SCC-81; [17]) was 7.33 ± 3.7%. For the same compound, the “maximal % inhibition of viability” value (UT-SCC-81; [16]) was 5.13 ± 5.4%, the “maximal % inhibition of viability” value (UT-SCC-81; [15]) was 11.2 ± 3.1% and the “maximal % inhibition of viability” value (UT-SCC-81; [14]) was 6.5 ± 2.2%. The “maximal % inhibition of viability” value (UT-SCC-14; [13]) was 16.8 ± 19%, the “maximal % inhibition of viability” value (UT-SCC-14; [17]) was 16.2 ± 15% and the “maximal % inhibition of viability” value (UT-SCC-14; [16]) was 7.17 ± 5.8%. The “maximal % inhibition of viability” value (UT-SCC-14; [15]) was 7.03 ± 7.9%, the “maximal % inhibition of viability” value (UT-SCC-14; [14]) was 11.7 ± 10% and the “maximal % inhibition of viability” value (UT-SCC-106A [10]; [13]) was 3.67 ± 0.31%. For the same compound, the “maximal % inhibition of viability” value (UT-SCC-106A [10]; [17]) was 7.53 ± 8.4%, the “maximal % inhibition of viability” value (UT-SCC-106A [10]; [16]) was 4.43 ± 3.8% and the “maximal % inhibition of viability” value (UT-SCC-106A [10]; [15]) was 5.1 ± 8.8%. The “maximal % inhibition of viability” value (UT-SCC-106A [10]; [14]) was 7.07 ± 3.2%, the “maximal % inhibition of viability” value (UT-SCC-24B [11]; [13]) was 77.4 ± 0.93% and the “maximal % inhibition of viability” value (UT-SCC-24B [11]; [17]) was 83.8 ± 1.4%. The “maximal % inhibition of viability” value (UT-SCC-24B [11]; [16]) was 78.6 ± 1.1%, the “maximal % inhibition of viability” value (UT-SCC-24B [11]; [15]) was 78.2 ± 1.9% and the “maximal % inhibition of viability” value (UT-SCC-24B [11]; [14]) was 76.2 ± 2.5%. For the same compound, the “maximal % inhibition of viability” value (UT-SCC-8 [12]; [13]) was 8.63 ± 5.4%, the “maximal % inhibition of viability” value (UT-SCC-8 [12]; [17]) was 18.3 ± 10% and the “maximal % inhibition of viability” value (UT-SCC-8 [12]; [16]) was 13.2 ± 5.7%. For the same compound, the “maximal % inhibition of viability” value (UT-SCC-8 [12]; [15]) was 9.7 ± 6.6% and the “maximal % inhibition of viability” value (UT-SCC-8 [12]; [14]) was 6.9 ± 6.6%.
